Read-outs that look alike come from different tables or passages of the source.
Experiments:
[1] = system: carrageenan-induced rat-paw edema; assay: carrageenan-induced rat paw edema method; format: in vivo; settings: for antiinflammatory activity (in words): carrageenan-induced rat paw edema, 100 mg/kg; for % PROTECTION: Table 3, all compounds screened at 100 mg/kg body weight
Description: (§1) Phenyl isothiocyanate was procured from Lancaster. Methyl isothiocyanate was gift sample from Hitesh Chemicals and Drugs Pvt Ltd, Hyderabad, India. Benzoylisothiocyanate, methoxycarbonyl isothiocyanate, ethoxy carbonyl isothiocyanate, N,N-diethyl actamidine, N,N-diethyl benzamidine, N,N-diethylphenyl acetamidine and 1,4-dibromo butane 2,3-dione were prepared in our lab following the reported procedures. Carrageenin was procured from Spectrochem India limited. HIV-1 integrase assay was done at Department of Pharmaceutical Sciences, School of Pharmacy, University of Southern California, Los Angeles, USA[18]. The reported protocol was followed for carrageenin-induced rat paw edema method[19] for evaluation of antiinflammatory activity. All compounds were screened in a group of 6 animals at dose of 100 mg/kg body weight of the animal. The experimental protocol was approved by the institutional animal ethics committee, constituted as per CPCSEA, Government of India.

HIV-1 integrase = molecular target: T1, HIV-1 integrase (Human immunodeficiency virus type 1 group M subtype B, UniProt P12497); assay: extracellular HIV-1 integrase assay (3'-processing and strand transfer); format: biochemical
T1 construct: […]; AS MEASURED IN AN EXT[…]-1 INTEGRASE ASSAY
From the text: Integrase (IN) has emerged as an attractive target, because it is necessary for stable infection and homologous enzymes are lacking in the human host[11]. The function of IN is to catalyze integration of proviral DNA, resulting from the reverse transcription of viral RNA, into the host genome. This is achieved in a stepwise fashion by endonucleolytic processing of proviral DNA within a cytoplasmic preintegration complex (termed 3' P-processing or “3'-P”), followed by translocation of the complex into the nuclear compartment where integration of 3'-processed proviral DNA into host DNA occurs in a “strand transfer” (ST) reaction. […] (fig. 1B)[1112]. The presence of diketo pharmacophore in the synthesized compounds made us to screen these compounds in a HIV-1 integrase inhibitory assay.
as §1

cPLA2 = molecular target: T2, cPLA2 (Homo sapiens, UniProt P47712); assay: cPLA2 inhibition; format: biochemical
T2 sequence (P47712 1-749): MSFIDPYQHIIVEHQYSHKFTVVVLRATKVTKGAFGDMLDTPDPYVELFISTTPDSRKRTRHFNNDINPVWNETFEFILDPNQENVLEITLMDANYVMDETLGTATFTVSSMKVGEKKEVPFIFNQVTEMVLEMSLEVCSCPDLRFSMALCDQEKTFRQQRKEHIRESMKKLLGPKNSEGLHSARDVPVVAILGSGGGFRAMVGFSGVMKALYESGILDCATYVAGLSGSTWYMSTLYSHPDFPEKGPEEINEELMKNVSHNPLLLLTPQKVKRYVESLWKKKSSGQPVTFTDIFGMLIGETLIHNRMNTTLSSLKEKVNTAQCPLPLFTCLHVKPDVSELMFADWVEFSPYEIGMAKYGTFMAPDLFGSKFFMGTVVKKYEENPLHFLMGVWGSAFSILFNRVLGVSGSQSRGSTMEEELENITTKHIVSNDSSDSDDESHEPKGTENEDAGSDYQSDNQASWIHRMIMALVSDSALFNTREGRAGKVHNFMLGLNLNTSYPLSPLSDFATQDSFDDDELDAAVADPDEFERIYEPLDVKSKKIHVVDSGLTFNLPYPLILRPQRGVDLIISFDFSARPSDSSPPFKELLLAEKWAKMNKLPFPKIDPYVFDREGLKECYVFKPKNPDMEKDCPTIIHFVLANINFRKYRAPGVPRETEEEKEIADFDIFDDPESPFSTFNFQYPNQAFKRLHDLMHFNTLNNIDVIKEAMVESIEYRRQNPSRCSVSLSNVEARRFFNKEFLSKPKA

[2] = system: TNF-α release from human peripheral blood mononuclear cells; assay: TNF-α release from human peripheral blood mononuclear cells; format: cell-based
[3] = 100 mg/kg b.w, rat paw edema, group of 6 animals, read-out: % PROTECTION Dose 100 mg/kg b.w
[4] = 3'-processing step, read-out: 3'P inhibitory potency
[5] = strand transfer step, read-out: ST inhibitory potency
[6] = Rattus norvegicus, 100 mg/kg body weight, read-out: protection in the carrageenan rat paw model
[7] = rat paw edema, group of 6 animals

Structure (SMILES) | inhibition in vivo at 100 mg/kg [1, 3] [%] | inhibition in vivo at 100 mg/kg [1, 6] [%] | further results
CNc1nc(C)c(C(=O)C(=O)c2sc(NC)nc2C)s1 [G-1] | 14 ± 7 | – | –
Cc1nc(Nc2ccccc2)sc1C(=O)C(=O)c1sc(Nc2ccccc2)nc1C [G-2] | 23 ± 8 | – | –
Cc1nc(Nc2ccc(Cl)cc2)sc1C(=O)C(=O)c1sc(Nc2ccc(Cl)cc2)nc1C [G-3] | 73 ± 0.3 | – | IC50 (HIV-1 integrase; [4]): 132 µM; IC50 (HIV-1 integrase; [5]): 397 µM
COC(=O)Nc1nc(C)c(C(=O)C(=O)c2sc(NC(=O)OC)nc2C)s1 [G-4] | 40 ± 2 | – | –
CCOC(=O)Nc1nc(C)c(C(=O)C(=O)c2sc(NC(=O)OCC)nc2C)s1 [G-5] | 33 ± 0.9 | – | –
O=C(Nc1nc(-c2ccccc2)c(C(=O)C(=O)c2sc(NC(=O)c3ccccc3)nc2-c2ccccc2)s1)c1ccccc1 [G-6] | 74 ± 0.5 | > 50 | cPLA2 inhibition (in words) (cPLA2): weakly inhibited; IC50 (HIV-1 integrase; [4]): > 500 µM; IC50 (HIV-1 integrase; [5]): 277 µM; melting point: 234 to 236 °C; effect on TNF-α release [2]: did not have any effect
O=C(C(=O)c1sc(Nc2ccccc2)nc1-c1ccccc1)c1sc(Nc2ccccc2)nc1-c1ccccc1 [G-7] | 70 ± 0.7 | > 50 | antiinflammatory activity (in words) [1]: good antiinflammatory activity
O=C(C(=O)c1sc(Nc2ccc(Cl)cc2)nc1-c1ccccc1)c1sc(Nc2ccc(Cl)cc2)nc1-c1ccccc1 [G-8] | 66 ± 1 | > 50 | –
COC(=O)Nc1nc(-c2ccccc2)c(C(=O)C(=O)c2sc(NC(=O)OC)nc2-c2ccccc2)s1 [G-9] | 26 ± 3 | – | –
CCOC(=O)Nc1nc(-c2ccccc2)c(C(=O)C(=O)c2sc(NC(=O)OCC)nc2-c2ccccc2)s1 [G-10] | 34 ± 4 | – | –
O=C(C(=O)c1sc(Nc2ccccc2)nc1Cc1ccccc1)c1sc(Nc2ccccc2)nc1Cc1ccccc1 [G-11] | 23 ± 2 | – | –
O=C(C(=O)c1sc(Nc2ccc(Cl)cc2)nc1Cc1ccccc1)c1sc(Nc2ccc(Cl)cc2)nc1Cc1ccccc1 [G-12] | 72 ± 1 | > 50 | antiinflammatory activity (in words) [1]: good antiinflammatory activity
COC(=O)Nc1nc(Cc2ccccc2)c(C(=O)C(=O)c2sc(NC(=O)OC)nc2Cc2ccccc2)s1 [G-13] | 35 ± 2.5 | – | –
CCOC(=O)Nc1nc(Cc2ccccc2)c(C(=O)C(=O)c2sc(NC(=O)OCC)nc2Cc2ccccc2)s1 [G-14] | 38 ± 2 | – | –
O=C(Nc1nc(Cc2ccccc2)c(C(=O)C(=O)c2sc(NC(=O)c3ccccc3)nc2Cc2ccccc2)s1)c1ccccc1 [G-15] | 47 ± 2.3 | – | –
O=C(C(=O)c1sc(N2CCCCC2)nc1-c1ccccc1)c1sc(N2CCCCC2)nc1-c1ccccc1 [G-16] | – | > 50 | % PROTECTION [1, 7]: 65±0.8%
O=C(C(=O)c1sc(N2CCOCC2)nc1-c1ccccc1)c1sc(N2CCOCC2)nc1-c1ccccc1 [G-17] | – | > 50 | IC50 (HIV-1 integrase; [4]): > 500 µM; IC50 (HIV-1 integrase; [5]): 109 µM; % PROTECTION [1, 7]: 81±0.5%; effect on TNF-α release [2]: did not have any effect
CN1CCN(c2nc(-c3ccccc3)c(C(=O)C(=O)c3sc(N4CCN(C)CC4)nc3-c3ccccc3)s2)CC1 [G-18] | – | > 50 | % PROTECTION [1, 7]: 60±0.5%
CCN1CCN(c2nc(-c3ccccc3)c(C(=O)C(=O)c3sc(N4CCN(CC)CC4)nc3-c3ccccc3)s2)CC1 [G-19] | – | > 50 | % PROTECTION [1, 7]: 72±0.5%; effect on TNF-α release [2]: did not have any effect
O=C(C(=O)c1sc(N2CCN(c3ccccc3)CC2)nc1-c1ccccc1)c1sc(N2CCN(c3ccccc3)CC2)nc1-c1ccccc1 [G-20] | – | > 50 | IC50 (HIV-1 integrase; [4]): 122 µM; IC50 (HIV-1 integrase; [5]): 87 µM; % PROTECTION [1, 7]: 55±4%
O=C(C(=O)c1sc(N2CCN(Cc3ccccc3)CC2)nc1-c1ccccc1)c1sc(N2CCN(Cc3ccccc3)CC2)nc1-c1ccccc1 [G-21] | – | > 50 | % PROTECTION [1, 7]: 85±0.3%
